This note sets out measurements from patent US20070275936A1, “Formulations and Treatment Methods” (priority 1998, published 2007).

Assay [1] has as its system Chloroquine sensitive T996/86 P. falciparum. Description: In vitro antimalarial testing (schizont inhibition / 3H-hypoxanthine incorporation). In kind it is cell-based. The settings on record: Plasmodium falciparum, T996. The procedure: For in vitro antimalarial testing, micro-titer plates were used. The concentration of drugs were prepared as pMol/well according to WHO standard procedures (WHO, 1990). The test compound was dissolved in 15% DMSO in sterile RPMI-1640. Both chloroquine sensitive (e.g., WS/97) and resistant (e.g., MN/97) isolates of Plasmodium species are used.
A schizont inhibition assay was performed as follows. The micro-titer plates were predosed with various concentrations of the test compound. 50 μL of parasitised erythrocyte suspension in RPMI-1640 (0.2 mL erythrocyte+0.3 mL serum+4-5 ml RPMI-1640) were dispensed in microtiter wells that contained various concentrations of drug. Triplicate readings were made for each concentration.
A ^3H-hypoxanthine incorporation assay was performed as follows. The testing was carried out according to the procedure of Desjardins et al. 1979. After 30 hr culture at 37 degrees C., the same microtiter plates from schizont inhibition assays with another triplicate wells were pulsed with ^3H-hypoxanthine for overnight. The cell suspensions were washed twice on millipore glass fiber filter with Millipore filter apparatus. The filter discs were counted for DPM by a Beckman LS6000 β-scintillation counter. The activity of the drug was measured by plotting DPM against concentration of drug.

The next assay deals with P. berghei HP15 ANKA. As to the kind of experiment: Four-day in vivo suppressive test in TO mice. On the set-up: species or system Plasmodium berghei. The settings on record: 100 mg/kg × 4 days i.p., day 5 blood films, 5 equals control. The procedure:
The 4-day suppressive test has been widely used and it can be performed within a 1 week period. The test consists of the inoculation of parasitised erythrocytes on the first day of the experiment (D0), followed by an injection of the test compound, which is also administered on the 2nd, 3rd and 4th days of the protocol. On the 5th day, blood films are taken and antimalarial activity is assessed either by calculating parasitemia, or by scoring parasite numbers on a predetermined scale (i.e., 1-5).
The protocol is summarized as follows. Five female TO mice were used per test group. P. berghei HP15 ANKA parasites were collected by cardiac puncture using a heparinised syringe from a donor mouse having a 30+% parasitaemia. The blood was diluted with diluting agent (50% HIFCS+50% sterile PBS) to a final concentration of 1% parasitaemia or 1×10^7 infected erythrocytes per 0.2 mL of the infecting suspension. […] The steroid formulations were administered intraperitoneally 2 hours after parasite inoculation. The compounds were administered once a day starting on Do, and continued on the following three days. Blood films were made from tail blood on the day after the last dosing of compound and the blood was fixed with 100% methanol and stained with 10% Giemsa. Parasitaemias were scored on a scale of 0-5, where 5 is equal to the control.
An inoculum of 1% parasitaemia […], 0.2 mL per mouse (female strain TO mice), was delivered by intravenous injection. Drug administration commenced 2 hours after inoculation on Day 1 and continued for 3 days.

A further assay relates to BALB/c mice. As to the kind of experiment: Reversal of immunosenescence: HBsAg vaccination of aged mice. In kind it is in vivo. As to conditions: for mice producing anti-HBsAg in response to secondary vaccination: groups of 8, 0.3 mg/mouse at primary vaccination. The procedure: Healthy aged (20-month) or immunologically-mature (3-month) BALB/c mice were vaccinated with hepatitis B surface antigen (HBsAg) (2 μg; Recombivax-HB; Merck) and Alum (2.75 μg). The aged mice were vaccinated with the antigen and also received a single subcutaneous injection of either 0.3 mg or 3.0 mg of 3β,7β,17β-trihydroxyandrost-5-ene (AET), BrEA or 7-oxodehydroepiandrosterone, dehydroepiandrosterone or the vehicle (placebo control). The AET, BrEA hemihydrate or dehydroepiandrosterone was present in a formulation that contained 60 mg/mL of the compound suspended in 0.1% w/v carboxymethyl cellulose sodium in 0.9% saline. 7-Oxodehydroepiandrosterone was in a formulation that contained 60 mg/mL of the compound suspended in 0.1% w/v gum arabic in 0.9% saline. A concentration of 6 mg/mL was obtained by diluting the 60 mg/mL formulation with vehicle that lacked the active substance.
Blood samples were collected 14, 21 and 34 days after treatment and the sera were analyzed by ELISA to determine the concentration of HBsAg-specific IgG (total IgG). In addition, samples obtained on day 21 were analyzed to determine the concentration of HBsAg-specific IgG1 and IgG2a subclasses. The results summarized below were average values obtained with blood samples collected 21 days after vaccination of groups of 8 mice. Subcutaneous injection was performed after shaving the hair from the thighs of each mouse. The injected volume was 50 μL for compound (3.0 mg or 0.3 mg) or placebo, and for vaccine preparation. The vehicle control consisted of carboxymethylcellulose (0.5%) in saline (0.9%). Antibody titers were determined by ELISA.
Secondary antibody response. Later, 42 days after the initial exposure to HBsAg, serum samples were taken from the mice described in the previous section and these were tested for anti-HBsAg IgG. At this time-point, vaccine-specific IgG titers were either low or undetectable. Three days later (45 days after first vaccination), the mice were injected again with HBsAg in Alum, but this time, none of the mice received immunosteroid (secondary vaccination). Serum samples collected 7 days and 14 days after the second exposure to HBsAg vaccine were assayed for anti-HBsAg antibody. […] In contrast, in aged mice that had received no immunosteroid with the first HBsAg injection, low levels of anti-HBsAg were detectable, and only in 4 of the 8 mice in this group was antibody detectable. Increases in anti-HBsAg titers were seen following secondary vaccination in aged animals that had been treated with immunosteroid in conjunction with the first HBsAg exposure. The anti-HBsAg antibody titer in serum increased following secondary vaccination in all 8 mice in the groups of aged mice that were treated at primary vaccination with the higher dose (3 mg/mouse) of AET, BrEA or 7-oxodehydroepiandrosterone, or with dehydroepiandrosterone (0.3 mg/mouse). In those aged mice that had received the lower dose (0.3 mg/mouse) of AET, BrEA or 7-oxodehydroepiandrosterone at vaccination, an intermediate response was seen, with 6 of the 8 mice producing detectable anti-HBsAg in response to secondary vaccination.

`C[C@]12CC[C@H](O)C[C@@H]1CC[C@@H]1[C@@H]2CC[C@]2(C)C(=O)[C@H](Br)C[C@@H]12` [BrEA, 16α-bromo-3β-hydroxy-5α-androstane-17-one]: in assay [1], the IC50 was 7.5 µM, the inhibition at 0.938 µM turned out to be 31.8%, the inhibition at 1.875 µM is 40.9% and the inhibition at 3.25 µM stood at 43.7%. Moreover, in assay [1], the inhibition at 7.5 µM was 50%, 15 µM produced 60.1% inhibition and the inhibition at 30 µM was 98%. The “Parasitaemia Score (0-5)” value in the assay with P. berghei HP15 ANKA is recorded as 1. In the assay with BALB/c mice, the “mice producing anti-HBsAg in response to secondary vaccination” value came to 6 mice. For the same compound, in the assay with BALB/c mice (groups of 8, 3 mg/mouse at primary vaccination), the “mice with increased anti-HBsAg antibody titer following secondary vaccination” value worked out at 8 mice.

With `C[C@]12CC[C@H](O)CC1=CC[C@@H]1[C@@H]2CC[C@]2(C)C(=O)CC[C@@H]12` [DHEA, dehydroepiandrosterone, reference compound], in assay [1], 19 µM corresponded to half-maximal inhibition (IC50), the inhibition at 0.938 µM was 37.2%, the inhibition at 1.875 µM is 23.2% and at 3.25 µM the inhibition was 37.2%. In assay [1], this compound showed an inhibition at 7.5 µM of 38.3%, an inhibition at 15 µM of 44% and an inhibition at 30 µM of 65.6%. Further, the “Parasitaemia Score (0-5)” value in the assay on P. berghei HP15 ANKA is 1. The “mice producing anti-HBsAg in response to secondary vaccination” value in the assay on BALB/c mice is recorded as 8 mice.

The term IC50 denotes the point on the concentration scale where inhibition reaches its midpoint. Low values mean higher potency, high ones lower potency. Broadly, the inhibition is the relative decrease from the control value, in per cent. Low values mean a weak effect, high ones a strong effect.
